Test results from patent US11596613B2, “Compositions and methods for treating cancer” (UNIVERSITY OF IOWA RESEARCH FOUNDATION, priority 2015, dated 2023).

Test system: A375 xenografts
Assay: A375 xenografts in athymic nu/nu mice treated with PLX4720 diet and/or BSO in drinking water
Type: in vivo
Experimental: 2-Mercaptoethanol is a reducing agent that leads to reduction of disulphide bonds to produce thiols. […] The effect of eliminating GSH in vivo was tested by treating mice (Athymic nu/nu) bearing A375 xenografts with rodent diet (AIN-76A) containing PLX4720 ([…], 416 mg/kg of diet) alone and in combination with BSO (15 mM in drinking water). […] Tumor xenografts in mice treated with the AIN-76 diet mixed with PLX4720 were responsive initially, but approximately 80% of these tumors acquired resistance to BRAFi treatment alone within 140 days (i.e., 20% complete responses; FIG. 2). On the contrary, the combination of BSO with PLX4720 produced nearly 90% complete and durable tumor responses (FIG. 4). […] Tumor progression was defined as a 50% increase (approximately a two standard deviation increase) in tumor volume from study initiation.
Female athymic nu/nu mice (age six weeks) were purchased from Envigo (previously Harlan Laboratories) and housed in the Animal Care Facility at The University of Iowa (Iowa City, Iowa). All procedures were approved by The University of Iowa Institutional Animal Care and Use Committee. All mice were naïve to treatments at the time of xenograft. For each xenograft, 1-3×10^6 cells (451LuBR and A375) were implanted subcutaneously in a 1:1 suspension of Matrigel (Corning) and PBS (flank) using a 27-gauge needle. For all in vivo studies, the mice were randomly assigned to experimental groups post-implant. Animals developed tumors within 7-10 days post-implant. Initiation of treatments was standardized to the time that tumor volume ([(longest length)×(smallest length^2)]/2) reached 80-100 mm^3.
The dose and mode of delivery for PBA was determined by analyzing the pharmacokinetics C-14 labeled PBA in mice (FIG. 5). These drugs were administered alone and in combination depending on the experimental group. The mice were monitored for their state of health every day. Tumor volume and animal weights were measured twice per week. Mice were euthanized when the observed state of health reached the endpoint according to the approved IACUC protocol or when the tumor volume reached 1500 mm^3.
Statistics was conducted using the tumor sizes (mm^3) that were obtained periodically throughout the experiments, resulting in repeated measurements for each mouse. Linear mixed effects regression models were used to estimate and compare treatment group-specific tumor growth curves. Pairwise comparisons were performed to identify treatment group differences in the growth curves. The Kaplan-Meier method was used to estimate the survival curves, and group comparisons were made using the log rank test. Mice who developed ulcerations were censored at day of euthanasia. […]

Structure (SMILES)	tumor growth rate (BSO 15 mM in drinking water, versus untreated controls)	GSH concentrations in tumor samples (mice treated with BSO vs controls)	complete (and durable) tumor responses (PLX4720 416 mg/kg of diet, alone or with BSO 15 mM in drinking water) [%]	tumors that acquired resistance to BRAFi treatment (within 140 days, PLX4720 416 mg/kg of AIN-76A diet)
CCCCS(=N)(=O)CCC(N)C(=O)O (stereo not shown) [BSO, buthionine sulfoximine]	No significant difference	significantly lower		
CCCS(=O)(=O)Nc1ccc(F)c(C(=O)c2c[nH]c3ncc(Cl)cc23)c1F [PLX4720]			20	approximately 80%
